The molecules below were run against T1, TAAR1 (Mus musculus, UniProt Q923Y8) (assay: Radioligand binding assay on membranes of HEK293 cells stably expressing TAAR1). Conditions: mouse TAAR1; radioligand [3H]-rac-2-(1,2,3,4-tetrahydro-1-naphthyl)-2-imidazoline, 4° C., 30 min.
T1 construct: expressed in transfected cells; host or cells: HEK293 cells (ATCC CRL-1573), stably transfected with pIRESneo2 expression plasmid; membranes prepared
Protocol: For the construction of expression plasmids the coding sequences of human, rat and mouse TAAR 1 were amplified from genomic DNA essentially as described by Lindemann et al.. The Expand High Fidelity PCR System (Roche Diagnostics) was used with 1.5 mM Mg^2+ and purified PCR products were cloned into pCR2.1-TOPO cloning vector (Invitrogen) following the instructions of the manufacturer. PCR products were subcloned into the pIRESneo2 vector (BD Clontech, Palo Alto, Calif.), and expression vectors were sequence verified before introduction in cell lines.
HEK293 cells (ATCC # C.RL-1573) were cultured essentially as described Lindemann et al. (2005). For the generation of stably transfected cell lines HEK293 cells were transfected with the pIRESneo2 expression plasmids containing the TAAR coding sequences (described above) with Lipofectamine 2000 (Invitrogen) according to the instructions of the manufacturer, and 24 hrs post transfection the culture medium was supplemented with 1 mg/ml G418 (Sigma, Buchs, Switzerland). After a culture period of about 10 d clones were isolated, expanded and tested for responsiveness to trace amines (all compounds purchased from Sigma) with the cAMP Biotrak Enzyme immunoassay (EIA) System (Amersham) following the non-acetylation EIA procedure provided by the manufacturer.
Cells at confluence were rinsed with ice-cold phosphate buffered saline without Ca^2+ and Mg^2+ containing 10 mM EDTA and pelleted by centrifugation at 1000 rpm for 5 min at 4° C. The pellet was then washed twice with ice-cold phosphate buffered saline and cell pellet was frozen immediately by immersion in liquid nitrogen and stored until use at −80° C. Cell pellet was then suspended in 20 ml HEPES-NaOH (20 mM), pH 7.4 containing 10 mM EDTA, and homogenized with a Polytron (PT 3000, Kinematica) at 10,000 rpm for 10 s. The homogenate was centrifuged at 48,000×g for 30 min at 4° C. and the pellet resuspended in 20 ml HEPES-NaOH (20 mM), pH 7.4 containing 0.1 mM EDTA (buffer A), and homogenized with a Polytron at 10,000 rpm for 10 s. The homogenate was then centrifuged at 48,000×g for 30 min at 4° C. and the pellet resuspended in 20 ml buffer A, and homogenized with a Polytron at 10,000 rpm for 10 s. Protein concentration was determined by the method of Pierce (Rockford, Ill.). The homogenate was then centrifuged at 48,000×g for 10 min at 4° C., resuspended in HEPES-NaOH (20 mM), pH 7.0 including MgCl2 (10 mM) and […] homogenized with a Polytron at 10,000 rpm for 10 s.
Binding assay was performed at 4° C. in a final volume of 1 ml, and with an incubation time of 30 min. The radioligand [^3H]-rac-2-(1,2,3,4-tetrahydro-1-naphthyl)-2-imidazoline was used at a concentration equal to the calculated Kd value of 60 nM to give a bound at around 0.1% of the total added radioligand concentration, and a specific binding which represented approximately 70-80% of the total binding. Non-specific binding was defined as the amount of [^3H]-rac-2-(1,2,3,4-tetrahydro-1-naphthyl)-2-imidazoline bound in the presence of the appropriate unlabelled ligand (10 μM). Competing ligands were tested in a wide range of concentrations […]. […] Each experiment was performed in duplicate. All incubations were terminated by rapid filtration through UniFilter-96 plates (Packard Instrument Company) and glass filter GF/C, pre-soaked for at least 2 h in polyethylenimine 0.3%, and using a Filtermate 96 Cell Harvester (Packard Instrument Company). The tubes and filters were then washed 3 times with 1 ml aliquots of cold buffer B. Filters were not dried and soaked in Ultima gold (45 μl/well, Packard Instrument Company) and bound radioactivity was counted by a TopCount Microplate Scintillation Counter (Packard Instrument Company).

T1 sequence (Q923Y8 whole entry): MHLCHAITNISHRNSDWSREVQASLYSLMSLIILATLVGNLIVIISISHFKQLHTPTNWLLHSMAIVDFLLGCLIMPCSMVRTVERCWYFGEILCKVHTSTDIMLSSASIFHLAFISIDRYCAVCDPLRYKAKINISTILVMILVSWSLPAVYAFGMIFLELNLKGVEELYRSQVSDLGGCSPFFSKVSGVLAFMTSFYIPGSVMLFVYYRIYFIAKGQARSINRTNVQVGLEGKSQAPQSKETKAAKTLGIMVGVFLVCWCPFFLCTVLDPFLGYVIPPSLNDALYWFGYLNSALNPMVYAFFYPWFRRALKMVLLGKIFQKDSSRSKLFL

| Compound | Ki [µM] |
| --- | --- |
| C1=NC(Cc2cccc3ccccc23)CN1 (racemic) [Example 2, rac-4-Naphthalen-1-ylmethyl-4,5-dihydro-1H-imidazole or tautomer] | 0.005 |
| C1=NC(CCc2ccccc2)CN1 (racemic) [Example 3, rac-4-Phenethyl-4,5-dihydro-1H-imidazole or tautomer] | 0.06 |
| CCN(CC1CN=CN1)c1ccccc1 (racemic) [Example 4, rac-(4,5-Dihydro-3H-imidazol-4-ylmethyl)-ethyl-phenyl-amine or tautomer] | 0.253 |
| CCc1cccc2cccc(CC3CNC=N3)c12 (racemic) [Example 6, (RS)-4-(8-Ethyl-naphthalen-1-ylmethyl)-4,5-dihydro-1H-imidazole or tautomer] | 0.078 |
| Clc1ccc(CCC2CNC=N2)cc1 (racemic) [Example 10, rac-4-[2-(4-Chloro-phenyl)-ethyl]-4,5-dihydro-1H-imidazole or tautomer] | 0.327 |
| CN(CC1CN=CN1)c1ccccc1 (stereo not shown) [Example 7, (4,5-Dihydro-3H-imidazol-4-ylmethyl)-methyl-phenyl-amine or tautomer] | 0.182 |

Same assay, conditions: radioligand binding assay; species not stated; read-out: calculated Kd value of the radioligand

| Compound | Kd [µM] |
| --- | --- |
| c1ccc2c(c1)CCCC2C1=NCCN1 (racemic) [[^3H]-rac-2-(1,2,3,4-tetrahydro-1-naphthyl)-2-imidazoline, reference compound] | 0.06 |

Source: patent publication US7812047B2, “4-imidazolines” (Hoffman-La Roche Inc., priority 2007, dated 2010)
